Where “and” joins values, the source holds several entries; their conditions need not be identical. Equal entries are not always repeated. Inconclusive results and toxic doses are left out. No stated cut-off is given here; in the data, active means T/C of 150% or more; inactive means T/C below 125%.
Tested on: L1210 leukemia ip in BDF1 mice, survival T/C
Assay: NCI In Vivo Anticancer Drug Screen. Data for tumor model L1210 Leukemia (intraperitoneal) in B6D2F1 (BDF1) mice
Conditions: endpoint: mean survival time, higher = longer survival
Method: The antitumor activity of compounds was measured in mice bearing transplantable tumors. Survival or tumor size were measured and the results are expressed as the measurement made in the treated group (T) divided by the measurement made in the vehicle treated control group (C). The tumor model used in this assay is L1210 Leukemia (intraperitoneal) in B6D2F1 (BDF1) mice

[1] = dose: 50.0 mg/kg/injection, schedule: Q01DX001 (ip), vehicle: carboxymethylcellulose (CMC)
[2] = dose: 100.0 mg/kg/injection, schedule: Q01DX001 (ip), vehicle: carboxymethylcellulose (CMC)
[3] = dose: 200.0 mg/kg/injection, schedule: Q01DX001 (ip), vehicle: carboxymethylcellulose (CMC)
[4] = dose: 400.0 mg/kg/injection, schedule: Q01DX001 (ip), vehicle: carboxymethylcellulose (CMC)
[5] = dose: 100.0 mg/kg/injection, schedule: Q04DX003 (ip), vehicle: Klucel (hydroxypropylcellulose) (HPC)
[6] = dose: 200.0 mg/kg/injection, schedule: Q04DX003 (ip), vehicle: Klucel (hydroxypropylcellulose) (HPC)
[7] = dose: 100.0 mg/kg/injection, schedule: Q04DX003 (ip), vehicle: acetone
[8] = dose: 200.0 mg/kg/injection, schedule: Q04DX003 (ip), vehicle: acetone
[9] = dose: 400.0 mg/kg/injection, schedule: Q04DX003 (ip), vehicle: Klucel (hydroxypropylcellulose) (HPC)
[10] = dose: 100.0 mg/kg/injection, schedule: Q01DX009 (ip), vehicle: Klucel (hydroxypropylcellulose) (HPC)
[11] = dose: 200.0 mg/kg/injection, schedule: Q01DX009 (ip), vehicle: Klucel (hydroxypropylcellulose) (HPC)
[12] = dose: 400.0 mg/kg/injection, schedule: Q01DX009 (ip), vehicle: Klucel (hydroxypropylcellulose) (HPC)

Measured: T/C

CCOC(=O)C(C)(C)CCC(C)(C)C(=O)OCC
inactive: dose: 100.0 mg/kg/injection, schedule: Q04DX002 (ip), vehicle: Klucel (hydroxypropylcellulose) (HPC) 97 % of control | dose: 200.0 mg/kg/injection, schedule: Q04DX002 (ip), vehicle: Klucel (hydroxypropylcellulose) (HPC) 103 % of control | dose: 400.0 mg/kg/injection, schedule: Q04DX002 (ip), vehicle: Klucel (hydroxypropylcellulose) (HPC) 90 % of control

N#CC1(C#N)C(c2ccccc2)C1(C#N)C#N
inactive: dose: 6.25 mg/kg/injection, schedule: Q01DX009 (ip), vehicle: saline with Tween-80 107 % of control | dose: 6.25 mg/kg/injection, schedule: Q04DX003 (ip), vehicle: saline sonified 102 % of control | dose: 12.5 mg/kg/injection, schedule: Q01DX009 (ip), vehicle: saline with Tween-80 105 % of control | dose: 12.5 mg/kg/injection, schedule: Q04DX003 (ip), vehicle: saline sonified 113 % of control | dose: 25.0 mg/kg/injection, schedule: Q01DX009 (ip), vehicle: saline with Tween-80 105 % of control | dose: 25.0 mg/kg/injection, schedule: Q04DX003 (ip), vehicle: saline sonified 96 % of control

O=C1c2cc(F)ccc2-c2cccc(F)c21
inactive: [1] 102 % of control | [2] 108 % of control | [3] 104 % of control | [4] 98 % of control

CC(C)c1ccc(/C=N\NC(=O)N/N=C/c2ccc(C(C)C)cc2)cc1
inactive: [5] 93 % of control | [6] 88 % of control

O=CC(O)C(O)C(O)C(O)CO (stereo unspecified) (tested in a mixture with another compound)
inactive: dose: 6.25 mg/kg/injection, schedule: Q04DX002 (ip), vehicle: saline 95 % of control | dose: 12.5 mg/kg/injection, schedule: Q04DX002 (ip), vehicle: saline 100 % of control | dose: 25.0 mg/kg/injection, schedule: Q04DX002 (ip), vehicle: saline 103 % of control and 91 % of control | dose: 75.0 mg/kg/injection, schedule: Q04DX002 (ip), vehicle: saline 95 % of control | dose: 100.0 mg/kg/injection, schedule: Q04DX002 (ip), vehicle: saline 103 % of control | dose: 150.0 mg/kg/injection, schedule: Q04DX002 (ip), vehicle: saline 95 % of control | dose: 200.0 mg/kg/injection, schedule: Q04DX002 (ip), vehicle: saline 99 % of control | dose: 300.0 mg/kg/injection, schedule: Q04DX002 (ip), vehicle: saline 106 % of control | dose: 400.0 mg/kg/injection, schedule: Q04DX002 (ip), vehicle: saline 102 % of control

COC(COS(=O)(=O)c1ccc(Br)cc1)(c1ccccc1)c1ccccc1
inactive: dose: 50.0 mg/kg/injection, schedule: Q01DX009 (ip), vehicle: saline with Tween-80 87 % of control

Cc1ccc(S(=O)(=O)/C=C(\C=C/c2ccccc2)c2ccccc2)cc1
inactive: [7] 95 % of control | [8] 95 % of control

Nc1ccc(N)c2c1C(=O)c1cccc([N+](=O)[O-])c1C2=O
inactive: [1] 101 % of control | [2] 97 % of control | [3] 95 % of control | [4] 95 % of control

O=C1c2ccccc2-c2ccc(-c3ccc4c5c(cccc35)C(=O)c3ccccc3-4)c3cccc1c23
inactive: [5] 89 % of control | [6] 95 % of control | [9] 89 % of control

CC(=O)OC1C=CCC23C(=O)C=CC(=O)C12C(=O)c1ccccc1C3=O (stereo unspecified)
inactive: dose: 0.25 mg/kg/injection, schedule: Q04DX003 (ip), vehicle: water 95 % of control | dose: 0.5 mg/kg/injection, schedule: Q04DX003 (ip), vehicle: water 100 % of control | dose: 1.0 mg/kg/injection, schedule: Q04DX003 (ip), vehicle: water 102 % of control | dose: 2.0 mg/kg/injection, schedule: Q04DX003 (ip), vehicle: water 97 % of control | dose: 4.0 mg/kg/injection, schedule: Q04DX003 (ip), vehicle: water 102 % of control | dose: 8.0 mg/kg/injection, schedule: Q04DX003 (ip), vehicle: water 100 % of control | dose: 16.0 mg/kg/injection, schedule: Q04DX003 (ip), vehicle: saline 102 % of control | dose: 16.0 mg/kg/injection, schedule: Q04DX003 (ip), vehicle: water 97 % of control | dose: 32.0 mg/kg/injection, schedule: Q04DX003 (ip), vehicle: saline 100 % of control | dose: 64.0 mg/kg/injection, schedule: Q04DX003 (ip), vehicle: saline 100 % of control

COc1ccc2c(n1)Sc1c(N)nc(N)nc1N2
inactive: [10] 103 % of control | [11] 103 % of control | [12] 88 % of control

COc1cccc(OC)c1C1(O)c2ccccc2-c2ccccc21
inactive: dose: 100.0 mg/kg/injection, schedule: Q04DX003 (ip), vehicle: saline with Tween-80 98 % of control | dose: 200.0 mg/kg/injection, schedule: Q04DX003 (ip), vehicle: saline with Tween-80 95 % of control | dose: 400.0 mg/kg/injection, schedule: Q04DX003 (ip), vehicle: saline with Tween-80 95 % of control

NC(N)=Nc1ccc(/C=C2\C=Cc3ccccc32)cc1
inactive: [3] 101 % of control

CCc1ccccc1NC(=O)Nc1ccccc1C
inactive: [10] 87 % of control | [5] 88 % of control | [11] 93 % of control | [6] 89 % of control | [12] 87 % of control | [9] 93 % of control

COc1ccc(CC(Cc2ccc(OC)c(OC)c2)NC=O)cc1OC
inactive: dose: 100.0 mg/kg/injection, schedule: Q01DX009 (ip), vehicle: saline with Tween-80 95 % of control | dose: 200.0 mg/kg/injection, schedule: Q01DX009 (ip), vehicle: saline with Tween-80 97 % of control | dose: 400.0 mg/kg/injection, schedule: Q01DX009 (ip), vehicle: saline with Tween-80 100 % of control

O=c1[nH]c(=O)n2ncnc2[nH]1
inactive: dose: 100.0 mg/kg/injection, schedule: Q04DX003 (ip), vehicle: saline 100 % of control | dose: 200.0 mg/kg/injection, schedule: Q04DX003 (ip), vehicle: saline 100 % of control | dose: 400.0 mg/kg/injection, schedule: Q04DX003 (ip), vehicle: saline 96 % of control

O=C1C=CC(=O)N1c1ccc(Cl)cc1 (tested in a mixture with another compound)
inactive: [7] 94 % of control | [8] 103 % of control | dose: 400.0 mg/kg/injection, schedule: Q04DX003 (ip), vehicle: acetone 87 % of control

C[CH2][Sn](/[CH]=C/C(C)(C)O)([CH2]C)[CH2]C
inactive: dose: 50.0 mg/kg/injection, schedule: Q01DX009 (ip), vehicle: saline 102 % of control | dose: 100.0 mg/kg/injection, schedule: Q01DX009 (ip), vehicle: saline 102 % of control

COc1nc(N)nc2c1nnn2C1OC(CO)C(O)C1O (stereo unspecified)
inactive: dose: 44.0 mg/kg/injection, schedule: Q01DX001 (ip), vehicle: Klucel (hydroxypropylcellulose) (HPC) 108 % of control | dose: 66.0 mg/kg/injection, schedule: Q01DX001 (ip), vehicle: Klucel (hydroxypropylcellulose) (HPC) 103 % of control | dose: 150.0 mg/kg/injection, schedule: Q01DX001 (ip), vehicle: Klucel (hydroxypropylcellulose) (HPC) 122 % of control
